Data as given in patent publication US11945822B2, “Pyrazolo-triazine and/or pyrazolo-pxrimidine derivatives as selective inhibitor of cyclin dependent kinase” (QURIENT CO., LTD., priority 2018, dated 2024).

Target: T1, CDK1/Cyclin B (Homo sapiens, UniProt P06493)
T1 construct: purchased Invitrogen PR4768C
Experiment: Enzymatic assay for CDK1 (FRET based LANCE Ultra kinase assay)
Assay type: biochemical
Details: read-out: CDK1 enzymatic activity (IC50 range)
Outline: (§1)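 LANCE Ultra TR-FRET: ULight-MBP peptide (68 nM) with ATP at Km, […], 60 min at 23° C. EDTA plus Eu-anti-phospho-MBP added, another 60 min, then 665/615 nm emission read. Compounds tested as 8-dose 4-fold DMSO dilutions.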

T1 sequence (P06493 whole entry): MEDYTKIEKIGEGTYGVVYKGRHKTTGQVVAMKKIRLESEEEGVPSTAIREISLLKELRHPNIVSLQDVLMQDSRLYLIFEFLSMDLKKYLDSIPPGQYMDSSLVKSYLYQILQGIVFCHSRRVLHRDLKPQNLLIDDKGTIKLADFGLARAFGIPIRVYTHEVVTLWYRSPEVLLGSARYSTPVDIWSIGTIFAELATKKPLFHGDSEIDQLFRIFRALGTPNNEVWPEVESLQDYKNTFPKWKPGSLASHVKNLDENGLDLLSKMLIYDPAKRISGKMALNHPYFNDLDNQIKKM
T1 sequence (P14635 whole entry partner): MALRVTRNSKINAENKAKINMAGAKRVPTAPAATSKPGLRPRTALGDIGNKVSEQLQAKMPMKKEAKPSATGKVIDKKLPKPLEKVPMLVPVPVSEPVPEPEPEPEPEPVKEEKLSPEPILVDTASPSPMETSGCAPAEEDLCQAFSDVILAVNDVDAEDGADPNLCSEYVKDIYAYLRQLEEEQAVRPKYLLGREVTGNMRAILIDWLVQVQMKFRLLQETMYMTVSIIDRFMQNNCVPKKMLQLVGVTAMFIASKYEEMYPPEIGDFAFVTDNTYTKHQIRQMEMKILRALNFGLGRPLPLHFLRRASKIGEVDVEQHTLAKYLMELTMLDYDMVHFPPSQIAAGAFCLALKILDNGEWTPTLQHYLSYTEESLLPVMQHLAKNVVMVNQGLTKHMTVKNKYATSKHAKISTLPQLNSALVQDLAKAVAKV

| IC50 | Structure (SMILES) |
| --- | --- |
| > 1000 nM | CC(C)c1cnn2c(NCc3ccccc3-n3cc4c(n3)CCOC4)nc(N3CCC(N)CC3)nc12 [Compound 133] |
| > 1000 nM | CC(C)c1cnn2c(NCc3c(Cl)cccc3-c3ccc4[nH]cnc4c3)nc(N3CCC(N)CC3)nc12 [Compound 136] |
| > 1000 nM | CC(C)c1cnn2c(NCc3ccccc3-n3cc4ccncc4n3)nc(N3CCC(N)CC3)nc12 [Compound 139] |
| 100 to 1000 nM | CC(C)c1cnn2c(NCc3ccccc3-c3ccc4[nH]c(=O)[nH]c4c3)nc(N3CCC(N)CC3)nc12 [Compound 140] |

Target: T2, CDK2/Cyclin A (Homo sapiens, UniProt P24941)
T2 construct: purchased Invitrogen PV6290
Experiment: Enzymatic assay for CDK2 (FRET based LANCE Ultra kinase assay)
Assay type: biochemical
Details: read-out: CDK2 enzymatic activity (IC50 range)
Outline: as §1

| IC50 | Structure (SMILES) |
| --- | --- |
| 100 to 1000 nM | CC(C)c1cnn2c(NCc3ccccc3-n3cc4c(n3)CCOC4)nc(N3CCC(N)CC3)nc12 [Compound 133] |
| > 1000 nM | CC(C)c1cnn2c(NCc3c(Cl)cccc3-c3ccc4[nH]cnc4c3)nc(N3CCC(N)CC3)nc12 [Compound 136] |
| 100 to 1000 nM | CC(C)c1cnn2c(NCc3ccccc3-n3cc4ccncc4n3)nc(N3CCC(N)CC3)nc12 [Compound 139] |
| 100 to 1000 nM | CC(C)c1cnn2c(NCc3ccccc3-c3ccc4[nH]c(=O)[nH]c4c3)nc(N3CCC(N)CC3)nc12 [Compound 140] |

Target: T3, CDK5/p25 (Homo sapiens, UniProt Q00535)
T3 construct: purchased Invitrogen PR8543B
T3 sequence (Q00535 whole entry): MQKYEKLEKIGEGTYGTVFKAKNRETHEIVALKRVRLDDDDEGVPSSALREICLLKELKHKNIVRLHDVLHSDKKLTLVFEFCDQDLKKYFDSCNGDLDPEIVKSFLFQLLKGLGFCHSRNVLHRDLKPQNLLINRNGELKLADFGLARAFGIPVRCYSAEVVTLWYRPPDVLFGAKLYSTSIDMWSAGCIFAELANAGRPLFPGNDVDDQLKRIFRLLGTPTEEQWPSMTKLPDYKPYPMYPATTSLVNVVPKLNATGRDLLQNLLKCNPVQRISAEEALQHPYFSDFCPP
T3 sequence (Q15078 99-307 partner limits assumed): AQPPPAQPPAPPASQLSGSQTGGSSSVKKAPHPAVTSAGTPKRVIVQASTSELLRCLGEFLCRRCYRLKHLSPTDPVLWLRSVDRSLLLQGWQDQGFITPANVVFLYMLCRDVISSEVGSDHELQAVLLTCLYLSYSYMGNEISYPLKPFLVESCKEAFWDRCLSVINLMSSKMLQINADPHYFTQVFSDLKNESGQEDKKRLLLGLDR
Experiment: Enzymatic assay for CDK5 (FRET based LANCE Ultra kinase assay)
Assay type: biochemical
Details: read-out: CDK5 enzymatic activity (IC50 range)
Outline: as §1

| IC50 | Structure (SMILES) |
| --- | --- |
| 100 to 1000 nM | CC(C)c1cnn2c(NCc3ccccc3-n3cc4c(n3)CCOC4)nc(N3CCC(N)CC3)nc12 [Compound 133] |
| 100 to 1000 nM | CC(C)c1cnn2c(NCc3c(Cl)cccc3-c3ccc4[nH]cnc4c3)nc(N3CCC(N)CC3)nc12 [Compound 136] |
| 100 to 1000 nM | CC(C)c1cnn2c(NCc3ccccc3-n3cc4ccncc4n3)nc(N3CCC(N)CC3)nc12 [Compound 139] |
| < 100 nM | CC(C)c1cnn2c(NCc3ccccc3-c3ccc4[nH]c(=O)[nH]c4c3)nc(N3CCC(N)CC3)nc12 [Compound 140] |

Target: T4, CDK7/Cyclin H/MNAT1 (Homo sapiens, UniProt P50613)
T4 construct: purchased Invitrogen PR6749B
T4 sequence (P50613 whole entry): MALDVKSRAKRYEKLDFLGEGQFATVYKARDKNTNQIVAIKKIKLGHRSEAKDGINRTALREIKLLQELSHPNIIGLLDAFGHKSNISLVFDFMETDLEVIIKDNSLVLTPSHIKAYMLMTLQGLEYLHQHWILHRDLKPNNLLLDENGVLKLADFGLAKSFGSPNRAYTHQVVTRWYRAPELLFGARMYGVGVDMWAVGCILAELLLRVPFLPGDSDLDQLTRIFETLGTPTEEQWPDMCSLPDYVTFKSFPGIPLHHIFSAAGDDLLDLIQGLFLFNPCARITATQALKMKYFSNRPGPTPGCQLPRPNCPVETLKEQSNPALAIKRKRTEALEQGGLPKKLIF
T4 sequence (P51946 whole entry partner): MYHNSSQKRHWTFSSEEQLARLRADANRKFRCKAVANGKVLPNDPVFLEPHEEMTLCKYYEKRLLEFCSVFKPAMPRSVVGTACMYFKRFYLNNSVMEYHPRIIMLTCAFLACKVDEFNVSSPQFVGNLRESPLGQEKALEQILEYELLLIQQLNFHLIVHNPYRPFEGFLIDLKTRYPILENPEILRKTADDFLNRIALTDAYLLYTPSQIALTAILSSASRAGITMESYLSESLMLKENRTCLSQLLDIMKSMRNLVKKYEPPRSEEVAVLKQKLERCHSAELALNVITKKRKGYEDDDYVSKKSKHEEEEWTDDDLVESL
T4 sequence (P51948 whole entry partner): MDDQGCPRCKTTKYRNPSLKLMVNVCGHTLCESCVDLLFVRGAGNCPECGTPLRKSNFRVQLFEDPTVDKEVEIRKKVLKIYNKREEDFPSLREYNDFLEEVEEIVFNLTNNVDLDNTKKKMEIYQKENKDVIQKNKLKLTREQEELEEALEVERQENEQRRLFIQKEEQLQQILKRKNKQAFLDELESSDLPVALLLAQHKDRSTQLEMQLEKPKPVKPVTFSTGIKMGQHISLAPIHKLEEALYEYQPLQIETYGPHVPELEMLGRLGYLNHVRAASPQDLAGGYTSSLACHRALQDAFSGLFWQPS
Experiment: Enzymatic assay for CDK7 (FRET based LANCE Ultra kinase assay)
Assay type: biochemical
Details: CDK7 over CDK1
Outline: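 LANCE Ultra TR-FRET kinase assay using a ULight-labeled peptide substrate and a Eu-labeled anti-phospho antibody, with ATP at its Km. Purified CDK/cyclin complex was added to compound after brief centrifugation.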

| CDK1/CDK7: Selectivity of CDK7 inhibition over CDK1 inhibition | Structure (SMILES) |
| --- | --- |
| A (A=greater than 200 fold) | CC(C)c1cnn2c(NCc3ccccc3-n3cc4c(n3)CCOC4)nc(N3CCC(N)CC3)nc12 [Compound 133] |
| A (A=greater than 200 fold) | CC(C)c1cnn2c(NCc3c(Cl)cccc3-c3ccc4[nH]cnc4c3)nc(N3CCC(N)CC3)nc12 [Compound 136] |
| A (A=greater than 200 fold) | CC(C)c1cnn2c(NCc3ccccc3-n3cc4ccncc4n3)nc(N3CCC(N)CC3)nc12 [Compound 139] |

| Structure (SMILES) | CDK1/CDK7: Selectivity of CDK7 inhibition over CDK1 inhibition |
| --- | --- |
| CC(C)c1cnn2c(NCc3ccccc3-c3ccc4[nH]c(=O)[nH]c4c3)nc(N3CCC(N)CC3)nc12 [Compound 140] | B (B=less than 200 fold, but greater than 20 fold) |

Same assay, conditions: CDK7 over CDK2

| Structure (SMILES) | CDK2/CDK7: Selectivity of CDK7 inhibition over CDK2 inhibition |
| --- | --- |
| CC(C)c1cnn2c(NCc3ccccc3-n3cc4c(n3)CCOC4)nc(N3CCC(N)CC3)nc12 [Compound 133] | B (B=less than 200 fold, but greater than 20 fold) |
| CC(C)c1cnn2c(NCc3c(Cl)cccc3-c3ccc4[nH]cnc4c3)nc(N3CCC(N)CC3)nc12 [Compound 136] | A (A=greater than 200 fold) |
| CC(C)c1cnn2c(NCc3ccccc3-n3cc4ccncc4n3)nc(N3CCC(N)CC3)nc12 [Compound 139] | B (B=less than 200 fold, but greater than 20 fold) |
| CC(C)c1cnn2c(NCc3ccccc3-c3ccc4[nH]c(=O)[nH]c4c3)nc(N3CCC(N)CC3)nc12 [Compound 140] | B (B=less than 200 fold, but greater than 20 fold) |

Same assay, conditions: CDK7 over CDK5

| Structure (SMILES) | CDK5/CDK7: Selectivity of CDK7 inhibition over CDK5 inhibition |
| --- | --- |
| CC(C)c1cnn2c(NCc3ccccc3-n3cc4c(n3)CCOC4)nc(N3CCC(N)CC3)nc12 [Compound 133] | B (B=less than 200 fold, but greater than 20 fold) |
| CC(C)c1cnn2c(NCc3c(Cl)cccc3-c3ccc4[nH]cnc4c3)nc(N3CCC(N)CC3)nc12 [Compound 136] | B (B=less than 200 fold, but greater than 20 fold) |
| CC(C)c1cnn2c(NCc3ccccc3-n3cc4ccncc4n3)nc(N3CCC(N)CC3)nc12 [Compound 139] | B (B=less than 200 fold, but greater than 20 fold) |
| CC(C)c1cnn2c(NCc3ccccc3-c3ccc4[nH]c(=O)[nH]c4c3)nc(N3CCC(N)CC3)nc12 [Compound 140] | C (C=less than 20 fold) |

Same assay, conditions: read-out: CDK7 enzymatic activity (IC50 range)

| IC50 | Structure (SMILES) |
| --- | --- |
| < 100 nM | CC(C)c1cnn2c(NCc3ccccc3-n3cc4c(n3)CCOC4)nc(N3CCC(N)CC3)nc12 [Compound 133] |
| < 100 nM | CC(C)c1cnn2c(NCc3c(Cl)cccc3-c3ccc4[nH]cnc4c3)nc(N3CCC(N)CC3)nc12 [Compound 136] |
| < 100 nM | CC(C)c1cnn2c(NCc3ccccc3-n3cc4ccncc4n3)nc(N3CCC(N)CC3)nc12 [Compound 139] |
| < 100 nM | CC(C)c1cnn2c(NCc3ccccc3-c3ccc4[nH]c(=O)[nH]c4c3)nc(N3CCC(N)CC3)nc12 [Compound 140] |

Tested on: HCT116
Experiment: Cellular HCT116 viability assay (CellTiter-Glo, 72 hours)
Assay type: cell-based
Details: Homo sapiens, HCT-116
Outline: (§2)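 72 h treatment, 37 °C, 5% CO2; DMSO ctrl, final <0.1%; CellTiter-Glo luminescence; n=2.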

| IC50 | Structure (SMILES) |
| --- | --- |
| < 1000 nM | CC(C)c1cnn2c(NCc3ccccc3-n3cc4c(n3)CCOC4)nc(N3CCC(N)CC3)nc12 [Compound 133] |
| < 1000 nM | CC(C)c1cnn2c(NCc3c(Cl)cccc3-c3ccc4[nH]cnc4c3)nc(N3CCC(N)CC3)nc12 [Compound 136] |
| < 1000 nM | CC(C)c1cnn2c(NCc3ccccc3-n3cc4ccncc4n3)nc(N3CCC(N)CC3)nc12 [Compound 139] |

Tested on: H460
Experiment: Cellular H460 viability assay (CellTiter-Glo, 72 hours)
Assay type: cell-based
Details: Homo sapiens, NCI-H460
Outline: as §2

| IC50 | Structure (SMILES) |
| --- | --- |
| < 1000 nM | CC(C)c1cnn2c(NCc3ccccc3-n3cc4c(n3)CCOC4)nc(N3CCC(N)CC3)nc12 [Compound 133] |
| 1000 to 10000 nM | CC(C)c1cnn2c(NCc3c(Cl)cccc3-c3ccc4[nH]cnc4c3)nc(N3CCC(N)CC3)nc12 [Compound 136] |
| < 1000 nM | CC(C)c1cnn2c(NCc3ccccc3-n3cc4ccncc4n3)nc(N3CCC(N)CC3)nc12 [Compound 139] |
| 1000 to 10000 nM | CC(C)c1cnn2c(NCc3ccccc3-c3ccc4[nH]c(=O)[nH]c4c3)nc(N3CCC(N)CC3)nc12 [Compound 140] |

Tested on: MV4-11
Experiment: Cellular MV4-11 viability assay (CellTiter-Glo, 72 hours)
Assay type: cell-based
Details: Homo sapiens
Outline: as §2

| IC50 | Structure (SMILES) |
| --- | --- |
| < 1000 nM | CC(C)c1cnn2c(NCc3ccccc3-n3cc4c(n3)CCOC4)nc(N3CCC(N)CC3)nc12 [Compound 133] |
| < 1000 nM | CC(C)c1cnn2c(NCc3c(Cl)cccc3-c3ccc4[nH]cnc4c3)nc(N3CCC(N)CC3)nc12 [Compound 136] |
| < 1000 nM | CC(C)c1cnn2c(NCc3ccccc3-n3cc4ccncc4n3)nc(N3CCC(N)CC3)nc12 [Compound 139] |
| < 1000 nM | CC(C)c1cnn2c(NCc3ccccc3-c3ccc4[nH]c(=O)[nH]c4c3)nc(N3CCC(N)CC3)nc12 [Compound 140] |

Tested on: RPMI-8226
Experiment: Cellular RPMI-8226 viability assay (CellTiter-Glo, 72 hours)
Assay type: cell-based
Details: Homo sapiens
Procedure: All cell lines were routinely tested for mycoplasma.
The effect of the CDK7 inhibitor to inhibit the growth of target cancer cells was evaluated through the 72 hours time period of viability assay. Briefly, the candidate cell line ware plated in 96 well plate at the following density of cells respectively. […] DMSO solvent without compound served as a control and final DMSO concentration less than 0.1%. After 72 hours of incubation at 37° C., 5% CO2 incubator, cells were analyzed for the viability using the CellTiter-Glo Luminescent Cell Viability Assay (Promega, Cat #G7570). All viability assays were performed in duplicate and Luminescence was read using an Envision (Perkin Elmer, USA). Data was analyzed using XLfit software.

| IC50 | Structure (SMILES) |
| --- | --- |
| < 1000 nM | CC(C)c1cnn2c(NCc3ccccc3-n3cc4c(n3)CCOC4)nc(N3CCC(N)CC3)nc12 [Compound 133] |
| 1000 to 10000 nM | CC(C)c1cnn2c(NCc3c(Cl)cccc3-c3ccc4[nH]cnc4c3)nc(N3CCC(N)CC3)nc12 [Compound 136] |
| < 1000 nM | CC(C)c1cnn2c(NCc3ccccc3-n3cc4ccncc4n3)nc(N3CCC(N)CC3)nc12 [Compound 139] |
| 1000 to 10000 nM | CC(C)c1cnn2c(NCc3ccccc3-c3ccc4[nH]c(=O)[nH]c4c3)nc(N3CCC(N)CC3)nc12 [Compound 140] |
